Data from US10869904B2, “Pharmaceutical composition for preventing or treating respiratory disease comprising extract of Justicia procumbens L” (DONG WHA PHARM. CO., LTD., priority 2016, dated 2020).
Like-named read-outs stand apart in the source and are kept apart here. Marks after values point to notes of the source that are not given here.

Assays:
ICR mice = assay: Test for evaluation of expectorant activity (phenol red in trachea); assay type: in vivo; conditions: 200 mg/kg, oral, male ICR mice
Procedure: In order to evaluate the expectorant activities of the water and ethanol extracts of Justicia procumbens L., prepared in Preparation Examples 1-1 to 1-2, a test for evaluation of expectorant activity was performed using male ICR mice (weighed 30 to 33 g; Orientbio). Specifically, the extracts and the comparative drug ambroxol (200 mg/kg, Boehringer Ingelheim) were administered orally to the respective groups of mice that fasted the previous day. […] The isolated trachea was freeze-stored in 1 ml of physiological saline for 24 hours. Next, the trachea was sonicated, and 1N NaOH was added to the supernatant (0.1 ml of 1N NaOH per ml of the supernatant). Then, the absorbance at 546 nm was measured and the expectorant activity was measured with the concentration of phenol red.

[1] = tested on: Neutrophilic Asthma Balb/c Mouse Models; assay: Asthma inhibitory effect in neutrophilic asthma model (ovalbumin + LPS): lung lavage fluid and lung tissue; assay type: in vivo, Balb/c mice; conditions: oral
Procedure: On 0 and 7 days after 1 week of acclimation, each of the mice was systematically sensitized by intranasally administering 75 μg of ovalbumin and 10 μg of lipopolysaccharide (LPS). 20, 50 or 100 mg/kg of the Justicia procumbens L. prepared in Preparation Example 3 or a positive control (10 mg/kg of dexamethasone and 1 mg/kg of montelukast) was administered orally to the mice On days 14, 15, 21, 22, 28, 29, 35, 36 and 37. One hour after administration, 50 μg of ovalbumin was administered intranasally to the mice. 24 hours after final sensitization (day 37), lung lavage fluid was obtained through tracheostomy, and the lung tissue was isolated. The collected lung lavage fluid was centrifuged at 3000 rpm […], and the supernatant was used to measure physiologically active substances (IL-4, IL-5, and IFN-γ), and the pellets were used to measure the number of inflammatory cells. The physiologically active substances (interleukin-4 (IL-4), interleukin-5 (IL-5), and interferon-gamma (IFN-γ)) in the isolated lung lavage fluid were measured using an enzyme-linked immunosorbent assay (ELISA, IL-4: Komabiotech #K0331144, IL-5: R&D system #M5000, IFN-γ: Komabiotech #K0331138) corresponding to each substance. In addition, the lung lavage fluid pellets were re-dissolved in 0.5 mL of phosphate buffered saline, and 0.1 mL of the solution was added to each well of a 96-well plate and centrifuged at 800 rpm for 5 minutes to attach the cells to the bottom (3 wells per sample). Then, each sample was stained with Diff Quik staining solution (Sysmex), and photographed with a microscope at 2-6 random sites. About 200 cells per sample were counted and the percentage (%) of inflammatory cells of each sample was calculated. The total number of inflammatory cells was measured with a microscope using a hematocytometer, and the number of eosinophils and the number of neutrophils were calculated using the percentage (%) of inflammatory cells of each sample. Staining of the lung tissue was performed in the same manner as described in Example 5 above. Statistical processing was performed using an SPSS program, and a Levene test was performed for a test for equal variance, and significance was tested by one-way analysis (ANOVA).

splenocytes = assay: Inhibition of Concanavalin A-induced splenocyte proliferation (CCK8); assay type: cell-based, Balb/c mice
Procedure: (§1) The isolated splenocytes were diluted in RPMI medium (containing 10% fetal bovine serum (FBS) and antibiotics (100 U/mL penicillin and 100 μg/mL streptomycin)) at a concentration of 5×10^6 cells/nit, and the cell dilution was dispended in a 24-well plate in an amount of 500 μl/well and in a 96-well plate in an amount of 100 μl/well. The plates were incubated in a 5% CO2 incubator at 37° C. for 48 hours. […] The medium of the 24-well plate was used to measure the degree of secretion of Th2 inflammatory cytokines (IL4 and IL5), and the 96-well plate was used to measure the degree of cell proliferation. First, in order to measure Th2 cytokines, the medium in the 24-well plate was collected and centrifuged at 800×g for 5 minutes, and the supernatant was collected. 100 μl of the supernatant per well was used in IL4 or IL5 enzyme-linked immunosorbent assay (ELISA, Komabiotech Inc.) to measure the degree of secretion of these cytokines. In order to measure the degree of cell proliferation, […] of CCK8 (cell counting kit 8, Donjindo) solution was added to each well of the 96-well plate, and after 4 hours, the absorbance value was measured. The degree of inhibition of spleen cell proliferation by each drug and the degree of inhibition of Th2 cytokine secretion by each drug were calculated using Equation 2 below. For drug synergistic effects, a linear equation was constructed using the concentrations of drugs administered alone as x-coordinates and using drug concentration-dependent inhibition as y-coordinates. Using this linear equation, the concentrations of drugs administered alone, which correspond to inhibition achieved when administered in combination, were calculated, and combination index (CI) was calculated using Equation 3 below. A CI value of less than 1 indicates a synergistic effect, a CI value of 1 indicates an additive effect, and a CI value of more than 1 indicates an antagonistic effect (Liang Zhao et. al., Clinical Cancer Research, 10, 7994-8004, 2004). […]

IL4 = assay: Inhibition of IL4 secretion by Concanavalin A-treated splenocytes (ELISA); assay type: cell-based, Balb/c mice
Procedure: as §1

IL5 = assay: Inhibition of IL5 secretion by Concanavalin A-treated splenocytes (ELISA); assay type: cell-based, Balb/c mice
Procedure: as §1

[2] = Mus musculus, Splenocyte, Table 5, 0.5 μM, read-out: Inhibition of splenocyte proliferation (%, n = 3, Mean ± SD)
[3] = Table 8, Concentration (mM) 0.2

## Nc1c(Br)cc(Br)cc1CN[C@H]1CC[C@H](O)CC1 [Ambroxol, ambroxol]
ICR mice
  Expectoration (%, n = 4, Mean ± SE): 11.4 ± 12.89%

## C[C@@H]1C[C@H]2[C@@H]3CCC4=CC(=O)C=C[C@]4(C)[C@@]3(F)[C@@H](O)C[C@]2(C)[C@@]1(O)C(=O)CO [Dexamethasone, dexamethasone]
[1]; 1 mg/kg
  Epithelium thickness (μm), n = 5, Mean ± S.E.: 5.0 ± 0.38##, $$ μm
  Lung lavage fluid_IFN-γ (pg/mL), n = 5, Mean ± S.E.: 1.3 ± 0.61##, $$ pg/mL
  Lung lavage fluid_IL-4 (pg/mL), n = 5, Mean ± S.E.: 32.1 ± 9.51## pg/mL
  Lung lavage fluid_IL-5 (pg/mL), n = 5, Mean ± S.E.: 53.0 ± 13.59##, $$ pg/mL
  Lung lavage fluid_eosinophil number (×10^5), n = 5, Mean ± S.E.: 0.1 ± 0.01## ×10^5
  Lung lavage fluid_neutrophil number (×10^5), n = 5, Mean ± S.E.: 0.2 ± 0.02## ×10^5
  Lung lavage fluid_total inflammatory cell number (×10^5), n = 5, Mean ± S.E.: 1.3 ± 0.07## ×10^5
  Subepithelial smooth muscle thickness (μm), n = 5, Mean ± S.E.: 2.7 ± 0.35 μm
splenocytes; Mus musculus, Splenocyte, Table 4, 0.5 μM, read-out: Inhibition of splenocyte proliferation (n = 3, Mean ± SD)
  inhibition at 0.5 µM: 110.3 ± 0.62%
splenocytes; [2]
  inhibition at 0.5 µM: 118.7 ± 0.21%
splenocytes; Mus musculus, Splenocyte, Table 6, 0.2 μM, read-out: Inhibition of splenocyte proliferation (%, n = 3, Mean ± SD)
  inhibition at 0.2 µM: 94.1 ± 1.8%
IL4; Mus musculus, Splenocyte, Table 7, 0.5 μM, read-out: Inhibition of IL4 secretion (%, n = 2, Mean ± SD)
  inhibition at 0.5 µM: 100%
IL4; [3]
  Inhibition of IL4 secretion (%, n = 2, Mean ± SD): 97.8 ± 0.00%
IL5; Mus musculus, Splenocyte, Table 7, 0.5 μM, read-out: Inhibition of IL5 secretion (%, n = 2, Mean ± SD)
  inhibition at 0.5 µM: 103%
IL5; [3]
  Inhibition of IL5 secretion (%, n = 2, Mean ± SD): 98.9 ± 0.01%

## CC(C)(O)c1ccccc1CC[C@@H](SCC1(CC(=O)O)CC1)c1cccc(/C=C/c2ccc3ccc(Cl)cc3n2)c1 [Montelukast, montelukast]
[1]; 10 mg/kg
  Epithelium thickness (μm), n = 5, Mean ± S.E.: 25.5 ± 1.64 μm
  Lung lavage fluid_IFN-γ (pg/mL), n = 5, Mean ± S.E.: 32.2 ± 2.13## pg/mL
  Lung lavage fluid_IL-4 (pg/mL), n = 5, Mean ± S.E.: 96.9 ± 14.40## pg/mL
  Lung lavage fluid_IL-5 (pg/mL), n = 5, Mean ± S.E.: 194.4 ± 23.1## pg/mL
  Lung lavage fluid_eosinophil number (×10^5), n = 5, Mean ± S.E.: 0.7 ± 0.05## ×10^5
  Lung lavage fluid_neutrophil number (×10^5), n = 5, Mean ± S.E.: 1.5 ± 0.07## ×10^5
  Lung lavage fluid_total inflammatory cell number (×10^5), n = 5, Mean ± S.E.: 4.0 ± 0.25## ×10^5
  Subepithelial smooth muscle thickness (μm), n = 5, Mean ± S.E.: 10.7 ± 0.59 μm
splenocytes; Mus musculus, Splenocyte, Table 4, 10 μM, read-out: Inhibition of splenocyte proliferation (n = 3, Mean ± SD)
  inhibition at 10 µM: 44.1 ± 4.34%
splenocytes; [2]
  inhibition at 0.5 µM: 40.2 ± 2.64%
IL4; Mus musculus, Splenocyte, Table 7, 10 μM, read-out: Inhibition of IL4 secretion (%, n = 2, Mean ± SD)
  inhibition at 10 µM: -42.6 ± 0.08%
IL5; Mus musculus, Splenocyte, Table 7, 10 μM, read-out: Inhibition of IL5 secretion (%, n = 2, Mean ± SD)
  inhibition at 10 µM: 70.2 ± 0.01%

## phyllamyricin C
splenocytes; Table 5, 0.5 μM
  Inhibition of splenocyte proliferation (%, n = 3, Mean ± SD): 0.9 ± 2.86%
splenocytes; Table 5, 5 μM
  Inhibition of splenocyte proliferation (%, n = 3, Mean ± SD): 18.8 ± 2.82%
splenocytes; Table 6, 1 μM
  Inhibition of splenocyte proliferation (%, n = 3, Mean ± SD): 19.0 ± 18.44%
splenocytes; Table 6, 5 μM
  Inhibition of splenocyte proliferation (%, n = 3, Mean ± SD): 25.0 ± 11.37%
splenocytes; Tables 4 to 6
  inhibition of splenocyte proliferation (in words): exhibited the effect of inhibiting splenocyte proliferation
IL4; Table 7, 1 μM
  Inhibition of IL4 secretion (%, n = 2, Mean ± SD): 9.8 ± 0.05%
IL4; Table 7, 5 μM
  Inhibition of IL4 secretion (%, n = 2, Mean ± SD): 14.4 ± 0.01%
IL4; Table 8, Concentration (mM) 1
  Inhibition of IL4 secretion (%, n = 2, Mean ± SD): 11.8 ± 0.01%
IL4; Table 8, Concentration (mM) 5
  Inhibition of IL4 secretion (%, n = 2, Mean ± SD): 51.5 ± 0.11%
IL4; text on Tables 7 and 8
  inhibition of IL4 secretion (in words): inhibited the secretion of IL4 and IL5
IL5; Table 7, 1 μM
  Inhibition of IL5 secretion (%, n = 2, Mean ± SD): 22.9 ± 0.01%
IL5; Table 7, 5 μM
  Inhibition of IL5 secretion (%, n = 2, Mean ± SD): 67.9 ± 0.01%
IL5; Table 8, Concentration (mM) 1
  Inhibition of IL5 secretion (%, n = 2, Mean ± SD): 0.5 ± 0.05%
IL5; Table 8, Concentration (mM) 5
  Inhibition of IL5 secretion (%, n = 2, Mean ± SD): 31.6 ± 0.08%
IL5; text on Tables 7 and 8
  inhibition of IL5 secretion (in words): inhibited the secretion of IL4 and IL5
